Test results from the NIST ThermoML archive (doi:10.1021/je800942u).

What was measured:
[1] = mn = molality of the nth substance listed, in mol/kg; conditions: 101 kPa, Liquid
[2] = wn = mass fraction of the nth substance listed; conditions: 101 kPa, Liquid
[3] = 101 kPa, Liquid

CCO [ethanol] + NCCCCCCN
[1], m2 = 0
Conditions | mass density [kg/m3] | viscosity [mPa·s]
303.15 K | 780.8 | 0.979
308.15 K | 776.5 | 0.8877
313.15 K | 770.3 | 0.8086
318.15 K | 765.2 | 0.7335
323.15 K | 760.3 | 0.6677
328.15 K | 754.5 | 0.6104

CCO [ethanol] + O
[2]
Conditions | mass density, w2 = 0.15 [kg/m3] | mass density, w2 = 0.2 [kg/m3] | mass density, w2 = 0.25 [kg/m3] | viscosity, w2 = 0.15 [mPa·s] | viscosity, w2 = 0.2 [mPa·s] | viscosity, w2 = 0.25 [mPa·s]
303.15 K | 822.7 | 836 | 848.8 | 1.383 | 1.511 | 1.611
308.15 K | 818.4 | 831.8 | 843 | 1.222 | 1.332 | 1.402
313.15 K | 813.1 | 827.1 | 838.2 | 1.085 | 1.174 | 1.229
318.15 K | 807.1 | 821 | 833.6 | 0.9649 | 1.025 | 1.085
323.15 K | 801.4 | 814.6 | 827.5 | 0.8601 | 0.9113 | 0.9573
328.15 K | 796.9 | 809.1 | 822.5 | 0.7734 | 0.8123 | 0.8538

NCCCCCCN [1,6-hexanediamine] + CCO
[1]
Conditions | mass density [kg/m3] | viscosity [mPa·s]
303.15 K, m1 = 0.1293 | 782.3 | 1.011
303.15 K, m1 = 0.2808 | 784.2 | 1.053
303.15 K, m1 = 0.4406 | 786.3 | 1.102
303.15 K, m1 = 0.6113 | 788.6 | 1.162
303.15 K, m1 = 0.7834 | 791.1 | 1.202
303.15 K, m1 = 0.9637 | 793.8 | 1.258
308.15 K, m1 = 0.1293 | 777.9 | 0.9157
308.15 K, m1 = 0.2808 | 779.7 | 0.9505
308.15 K, m1 = 0.4406 | 781.9 | 0.9928
308.15 K, m1 = 0.6113 | 784.7 | 1.046
308.15 K, m1 = 0.7834 | 787.3 | 1.081
308.15 K, m1 = 0.9637 | 790.1 | 1.133
313.15 K, m1 = 0.1293 | 771.6 | 0.8341
313.15 K, m1 = 0.2808 | 773.3 | 0.8606
313.15 K, m1 = 0.4406 | 775.2 | 0.8994
313.15 K, m1 = 0.6113 | 777.2 | 0.9437
313.15 K, m1 = 0.7834 | 779.3 | 0.975
313.15 K, m1 = 0.9637 | 781.5 | 1.019
318.15 K, m1 = 0.1293 | 766.4 | 0.7569
318.15 K, m1 = 0.2808 | 767.9 | 0.7849
318.15 K, m1 = 0.4406 | 769.6 | 0.8154
318.15 K, m1 = 0.6113 | 771.4 | 0.8571
318.15 K, m1 = 0.7834 | 773.3 | 0.8816
318.15 K, m1 = 0.9637 | 775.3 | 0.9201
323.15 K, m1 = 0.1293 | 761.4 | 0.6866
323.15 K, m1 = 0.2808 | 762.8 | 0.7105
323.15 K, m1 = 0.4406 | 764.3 | 0.7356
323.15 K, m1 = 0.6113 | 766 | 0.7761
323.15 K, m1 = 0.7834 | 767.8 | 0.798
323.15 K, m1 = 0.9637 | 769.7 | 0.8301
328.15 K, m1 = 0.1293 | 755.5 | 0.6275
328.15 K, m1 = 0.2808 | 756.8 | 0.6485
328.15 K, m1 = 0.4406 | 758.3 | 0.6737
328.15 K, m1 = 0.6113 | 759.9 | 0.7013
328.15 K, m1 = 0.7834 | 761.6 | 0.7227
328.15 K, m1 = 0.9637 | 763.4 | 0.7564

CCO [ethanol]
[3]
Conditions | mass density [kg/m3] | viscosity [mPa·s]
303.15 K | 780.8 | 0.979
308.15 K | 776.5 | 0.8877
313.15 K | 770.3 | 0.8086
318.15 K | 765.2 | 0.7335
323.15 K | 760.3 | 0.6677
328.15 K | 754.5 | 0.6104
